Here are results for 3 molecules from US20240201204A1, “Biomarker and Druggable Target of Neurodegeneration” (University Hospitals Cleveland Medical Center, priority 2020, published 2024).

The subject of one assay is tau. In words: Tau mislocalization after TBI (tau and NeuN immunohistochemistry). It counts as in vivo, mouse. How it is done: (§1) Drug preparation and administration: CGP3466B (Sigma-Aldrich, SML1941) was dissolved in DMSO and then diluted in sterile saline. The final working stock was 0.0014 mg/ml for administering the 0.014 mg/kg dose. Intraperitoneal administration of CGP3466B was initiated 15 min or 24 h after injury, and tissues were harvested 6 h (for SNO-GAPDH, SNO-SIRT1 measurement) or 2 weeks (for ac-tau measurement) later, respectively. Salsalate (AdipoGen, AG-CR1-3574) was dissolved in DMSO and then diluted in sterile PBS. The final working stocks were as follows: 2.5 mg/ml (25 mg/kg dose), 1 mg/ml (10 mg/kg dose), 0.5 mg/ml (5 mg/kg dose). Daily intraperitoneal administration of salsalate was initiated 24 hr after injury and continued throughout behavioral testing. P7C3-A20 and FK866 (Sigma-Aldrich, F8557) were first dissolved in 1 vol of DMSO, followed by addition of 4 vol of Kolliphor and vigorously vortexing. The solution was then diluted with 30 vol of filtered 5% dextrose (pH 7.0). EX527 (Selleckchem, S1541) was dissolved in 1% DMSO+30% polyethylene glycol+1% Tween 80. Daily intraperitoneal administration of P7C3-A20 was initiated 24 hr after poly-traumatic brain injury. EX527 (10 mg/kg) was administer once a day and FK866 was treated twice per day, with the first injection given at the same time as P7C3-A20 (20 mg/kg) and the second injection given 6 h later (LoCoco et al., 2017 eLife). Diflunisal was first dissolved in 1 vol of DMSO, followed by addition of 2 vol of Kolliphor and vigorously vortexing. The solution was then diluted with 7 vol of saline to the appropriate concentration for administration at 25, 50, or 100 mg/kg.
(§2) The pressure in the side not containing the mouse was increased to cause membrane rupture at 20 pounds per square inch (PSI), which generates an about 1-2 ms jet airflow of 137.9+/−13.79 kPa that passes through the animal's head. The head remains untethered in a padded holder, while the body is fully shielded by a metal tube. The jet of air produced upon membrane rupture provides a concussive injury, which is followed by acceleration/deceleration of the head and then exposure to the ensuing blast wave within an enclosed space.
Immunohistochemistry: Mice were transcardially perfused with cold 1× phosphate-buffered saline (PBS) followed by 4% paraformaldehyde in PBS at pH 7.4 under anesthesia. Brains were carefully removed and post-fixed in 4% paraformaldehyde overnight at 4° C. Brains were immersed in 30% sucrose in PBS for 72 h at 4° C. and then rapidly frozen in 2-methylbutane pre-cooled to −20° C. with dry ice. Brains were cut coronally (40 μm) and sections were stored in cryoprotective solution (150 mM Ethylene glycol, 100 mM glycerol, 250 mM PBS) at −20° C. […]

Another assay relates to NAD^+. The assay can be described thus: Brain NAD+ measurement after TBI. It counts as in vivo, mouse. How it is done: as §1, with “Diflunisal was first dissolved in 1 vol of DMSO, followed by addition of 2 vol of Kolliphor and vigorously vortexing. The solution was then diluted with 7 vol of saline to the appropriate concentration for administration at 25, 50, or 100 mg/kg.” left out

The test system of the next assay is axon initial segment. The assay can be described thus: Axon initial segment (AIS) degradation after TBI (AnkG, βIV-spectrin staining). In kind it is in vivo, mouse. How it is done:
as §1, §2
Immunohistochemistry: Mice were transcardially perfused with cold 1× phosphate-buffered saline (PBS) followed by 4% paraformaldehyde in PBS at pH 7.4 under anesthesia. Brains were carefully removed and post-fixed in 4% paraformaldehyde overnight at 4° C. Brains were immersed in 30% sucrose in PBS for 72 h at 4° C. and then rapidly frozen in 2-methylbutane pre-cooled to −20° C. with dry ice. Brains were cut coronally (40 μm) and sections were stored in cryoprotective solution (150 mM Ethylene glycol, 100 mM glycerol, 250 mM PBS) at −20° C. For tau and NeuN staining, sections were washed three times with PBS for 5 min and then treated with 0.2% Triton X-100 in PBS for 15 min. Sections were washed with PBS and then incubated with 100 mM glycine for 15 min. After blocking sections using blocking buffer (1% bovine serum albumin, 10% normal goat serum, 0.3 M glycine) for 30 min, primary antibodies (Tau, Invitrogen, #13-6400, 1:100, NeuN, EMD Millipore Cor., #MABN-140, 1:500) were incubated overnight at 4° C. Sections were washed three times with PBS (5 min each) and then incubated with Alexa Fluor 488 goat anti-mouse (Invitrogen, A11001, 1:200) or Alexa Fluor 568 goat anti-rabbit (Life technologies, A11011, 1:200) at room temperature for 2 h. […]

For a further assay, the target named is T1, GAPDH (Mus musculus, UniProt P16858).
T1 construct: from tissue; host or cells: cerebral cortex of C57BL/6J mice after TBI
T1 sequence (P16858 whole entry): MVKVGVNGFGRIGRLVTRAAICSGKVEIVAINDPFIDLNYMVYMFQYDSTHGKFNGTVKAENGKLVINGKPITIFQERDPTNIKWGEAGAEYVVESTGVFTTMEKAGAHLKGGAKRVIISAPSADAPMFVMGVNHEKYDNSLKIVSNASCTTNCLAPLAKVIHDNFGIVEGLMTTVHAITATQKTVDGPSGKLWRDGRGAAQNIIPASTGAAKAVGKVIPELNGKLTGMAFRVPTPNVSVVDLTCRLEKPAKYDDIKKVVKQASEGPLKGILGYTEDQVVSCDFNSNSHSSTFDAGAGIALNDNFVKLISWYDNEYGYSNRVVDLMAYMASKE
In words: S-nitrosylation of GAPDH after TBI (SNO-resin assisted capture, western blot). It counts as in vivo. To be noted: P7C3-A20 treatment after TBI. How it is done: as §1, with “The solution was then diluted with 7 vol of saline to the appropriate concentration for administration at 25, 50, or 100 mg/kg.” left out
SNO-resin assisted capture (SNO-RAC): SNO-RAC was performed as described previously (Forrester, 2009). […] After two times centrifugation (20,000 g at 4° C. for 20 min), protein concentration of supernatants was determined using Coomassie protein assay (Thermo Scientific, #1856210). […] SNO-proteins were then eluted with 2× Laemmli Sample Buffer (Bio-Rad Laboratories, Inc., #1610737) with 10% beta-mercaptoethanol (Bio-Rad Laboratories, Inc., #1610710) and analyzed by SDS-PAGE and immunoblotting.
(In general: In western blotting, separated proteins are transferred to a membrane and probed.)

The subject of a further assay is p300/CBP. To be noted: literature (Shirakawa et al., 2016); cited from earlier work.
In assay [1] the test system is dementia, minor cognitive impairment, cognitive decline. To be noted: about 19,000 subjects, placebo-controlled; cited from earlier work.
Where [2] appears, read: co-treatment with P7C3-A20, EX527 10 mg/kg once a day, FK866 twice per day.
The mark [3] stands for this setting: P7C3-A20 daily IP from 24 h after TBI.

For the molecule `O=C(/C=C/c1cccnc1)NCCCCC1CCN(C(=O)c2ccccc2)CC1` [FK866], in the assay with tau (setting [2]), the “effect on P7C3-A20 protection from post-TBI tau mislocalization” value is on record as “This protective effect is blocked”. In addition, in the assay on NAD^+ (FK866 twice per day, co-administered with P7C3-A20 after TBI), the “effect on P7C3-A20 rescue of NAD^+ levels” value is reported as “blocked”. Besides, the “effect on P7C3-A20 protection from post-TBI AIS degradation” value with axon initial segment (setting [2]) is listed as “This protective effect is blocked”.
For `COc1cccc(NCC(F)Cn2c3ccc(Br)cc3c3cc(Br)ccc32)c1` (stereo not drawn) [P7C3-A20, 3,6-dibromo-β-fluoro-N-(3-methoxyphenyl)-9H-carbazole-9-propanamine], the post-TBI tau mislocalization result in the assay on tau (setting [3]) was “protects mice from post-TBI tau mislocalization”. In the assay with NAD^+ (P7C3-A20 daily IP from 24 h after TBI, cerebral cortex), the “brain NAD^+ levels” value is “rescued normal NAD^+ levels after TBI”. Moreover, the “post-TBI AIS degradation” value in the assay on axon initial segment (setting [3]) is on record as “protects mice from post-TBI AIS degradation”. The SNO-GAPDH result on GAPDH is given as “SNO-GAPDH is not affected”.
On to `CC(=O)Oc1ccccc1C(=O)O` [aspirin], for which, in the assay with p300/CBP, the “inhibition of p300/CBP” value is recorded as “does not inhibit p300/CBP”. The “incidence of dementia, minor cognitive impairment, or cognitive decline” value in assay [1] is “does not significantly reduce the incidence of dementia, minor cognitive impairment, or cognitive decline”.
